The source of these data is patent publication US20160251612A1, “CULTURE MEDIUM FOR ESTABLISHING NEUROEPITHELIAL STEM CELLS, METHOD FOR ESTABLISHING NEUROEPITHELIAL STEM CELLS, AND APPLICATIONS THEREOF” (YUNNAN KEY LAB OF PRIMATE BIOMEDICINE RESEARCH, priority 2014, published 2016).

Test [1] has as its system single neuroepithelial stem cells. Nature of the test: single cell culture tests: single neuroepithelial stem cell to neural tubes, one ingredient removed from the culture medium or inhibitor added. The test is classed as cell-based. To be noted: for ability of the cells to form neural tubes: ingredient removed from the proliferation culture medium; for ability of the cells to form neural tubes / cell proliferation ability: single cell culture; for cell proliferation ability: ingredient removed alone from the proliferation culture medium. The source says:
Additionally, a neuroepithelial stem cell can self-organize into the neural tube structures. Preferably, the operation may be performed as follows: neuroepithelial stem cells cultured for long term are digested into single cells, limitedly diluted, and cultured on wells of a 96-well plate coated with laminin, one cell per well, in the above proliferation culture medium; the liquid is changed every 2-3 days, and the single neuroepithelial stem cells self-organize into a series of neural tube structures at the 14-15th day. These neural tube structures derived from single cells express Sox2, Nestin, Pax6, ZO-1 and N-cadherin.
In addition, in the present embodiment, in order to detect which factors in the whole culture system are essential and necessary for the growth and generation of the neural tubes, it is possible to use the characteristic of the single cell forming the neural tube structure and to perform a series of single cell culture tests where one ingredient is removed from the culture medium every time to estimate which ingredients are essential for self-renewal of the neuroepithelial stem cells and formation of the neural tube.
SU5402 is an inhibitor of the FGF receptor. What the arrow points to is the miniature neural tube structure derived from the single neuroepithelial stem cell in the neuroepithelial stem cell proliferation culture medium containing SU5402.

Test [2] deals with single neuroepithelial stem cell. Nature of the test: modeling neural tube defect disease by the single neuroepithelial stem cell to neural tubes assay (folic acid). The test is classed as cell-based. To be noted: FIG. 5 (C).

For `NC(=O)c1ccc(-c2nc(-c3ccc4c(c3)OCO4)c(-c3ccccn3)[nH]2)cc1` [SB431542, reference compound], the “ability of the cells to form neural tubes” value (“ability of the cells” below) in test [1] is on record as “does not affect the ability of the cells to form neural tubes”.

On to “Leukemia Inhibitory Factor: regulates cell proliferation and differentiation; ingredient of the proliferation culture medium”, for which, in test [1], the cell proliferation ability result is “significant decrease” and the “ability of the cells” value was “significant decrease”. Further, in test [1] (secondary clone assays), the “continuous production of neural tube structures” value was “necessary for cells to continuously produce neural tube structures”. Take `Cc1c[nH]c(-c2cnc(NCCNc3ccc(C#N)cn3)nc2-c2ccc(Cl)cc2Cl)n1.Cl` [CHIR99021, reference compound]: in test [1], the “ability of the cells” value is recorded as “no cell could produce the neural tube structure”.

For the compound `Nc1nc2ncc(CNc3ccc(C(=O)N[C@@H](CCC(=O)O)C(=O)O)cc3)nc2c(=O)[nH]1` [folic acid], in test [2], the “colony apoptosis versus concentration of the folic acid” value is listed as “in negative correlation with colony apoptosis” and the “neural tube formation versus concentration of the folic acid” value is listed as “in positive correlation with the neural tube formation”.

Regarding “bFGF: growth factor; promotes early-stage differentiation and proliferation of neural stem cells”, in test [1], the cell proliferation ability result is “significant decrease” and the “ability of the cells” value is “significant decrease”.

As to `Cc1c[nH]c(/C=C2\C(=O)Nc3ccccc32)c1CCC(=O)O` [SU5402, reference compound], the “ability to produce neural tubes” value in test [1] (SU5402 used to inhibit FGFR signaling pathway in proliferation culture medium) was “all cells lose the ability to produce neural tubes”.
